The record followed here is patent US20090036472A1, “AZABICYCLO DERIVATIVES AS ANTI-INFLAMMATORY AGENTS” (priority 2005, published 2009).

For series [1], the system named is TNF-α release from LPS-stimulated human peripheral blood mononuclear cells. Description: Cell based assay for TNF-α release, LPS stimulation of human PBMNC's. As to conditions: PBMC, LPS 20 ng/ml, overnight, ELISA, collective range for the listed compounds, units given within the value (μM to nM), read-out: IC50 (TNF-α release; printed as IC50 for p38 inhibitory activity). The procedure:
Cell based Assay for TNF-α release
Method of Isolation of Human Peripheral Blood Mononuclear Cells:
Human whole blood was collected in vacutainer tubes containing EDTA as an anti coagulant. A blood sample (7 ml) was carefully layered over 5 ml PMN Cell Isolation Medium (Robbins Scientific) in a 15 ml round bottom centrifuge tubes. The sample was centrifuged at 450-500×g for 30-35 minutes in a swing-out rotor at room temperature. After centrifugation the top band of cells were removed and washed 3 times with PBS w/o calcium or magnesium. The cells were centrifuged at 400×g for 10 minutes at room temperature. The cells were resuspended in Macrophage Serum Free Medium (Gibco BRL) at concentration of 2 million cells/ml.
LPS Stimulation of Human PBMNC's:
PBM cells (0.1 ml; 2 million/ml) were co-incubated with 0.1 ml of compound (10-0.41 μM, final concentration) for 1 hour in flat bottom 96 well microtiter plate. Compounds were dissolved in DMSO initially and diluted in TCM for a final concentration of 0.1% DMSO. LPS (Cal biochem, 20 ng/ml, final concentration) was then added at volume of 0.010 ml. Cultures were incubated overnight at 37° C.). Supernatant were then removed and tested by ELISA for TNF-α release. Viability was analyzed using MTT. After 0.1 ml supernatant was collected, 0.1 ml of 0.25 mg/ml of MTT was added to remaining 0.1 ml of cells. The cells were incubated at 37° C. for 2-4 hours, then the O.D was measured at 490-650 nm.
The TNF-α levels released in the culture medium was quantitated by ELISA. Inhibitory potency was expressed as IC50.

A further series concerns the target activated p38 (Homo sapiens, UniProt Q16539). The series can be described thus: p38 inhibition assay: inhibition of phosphorylation of EGF receptor peptide. To be noted: compound behaviour in the assay. It is filed as biochemical. The method, then: p38 Inhibition Assays—Inhibition of Phosphorylation of EGF Receptor Peptide
This assay was carried out in the presence of 10 mM MgCl2, 25 mM β-glycerophosphate, 10% glycerol and 100 mM HEPES buffer at pH 7.6. For a typical IC50 determination, a stock solution was prepared containing all of the above components and activated p38 (5 nM). The stock solution was aliquoted into vials. A fixed volume of DMSO or inhibitor in DMSO (final concentration of DMSO in reaction was 5%) was introduced to each vial, mixed and incubated for 15 minutes at room temperature.
EGF receptor peptide, […], a phosphoryl acceptor in p38-catalysed kinase reaction (1), was added to each vial to a final concentration of 200 μM. The kinase reaction was initiated with ATP (100 μm) and the vials were incubated at 30C. After 30 minutes, the reactions were quenched with equal volume of 10% trifluoroacetic acid (TFA).
The phosphorylated peptide was quantified by HPLC analysis. Separation of the phosphorylated peptide from the unphosphorylated peptide was achieved on a reverse phase column (Deltapak, 5 μM, C18 100D, part no. 011795) with a binary gradient of water and acetonitrile, each containing 0.1% TFA. IC50 (concentration of inhibitor yielding 50% inhibition) was determined by plotting the % activity remaining against inhibitor concentration.

activated p38, sequence (Q16539 whole entry): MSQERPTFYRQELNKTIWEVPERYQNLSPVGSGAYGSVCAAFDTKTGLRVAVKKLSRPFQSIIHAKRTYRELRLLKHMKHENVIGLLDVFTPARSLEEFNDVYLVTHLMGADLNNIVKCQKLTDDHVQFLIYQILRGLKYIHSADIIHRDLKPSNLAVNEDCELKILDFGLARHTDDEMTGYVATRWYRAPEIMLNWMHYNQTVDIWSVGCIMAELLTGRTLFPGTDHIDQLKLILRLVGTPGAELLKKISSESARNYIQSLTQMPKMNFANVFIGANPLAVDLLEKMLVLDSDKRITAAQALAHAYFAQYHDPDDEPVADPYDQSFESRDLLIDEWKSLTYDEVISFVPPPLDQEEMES

In the case of `Cn1c(=O)c(-c2ccccc2Cl)cc2cnc(NN3CC4CCCC4C3)nc21` (stereo not drawn) [Compound No. 1, 6-(2-Chlorophenyl)-2-(3-azabicyclo[3.3.0]oct-3-yl-amino)-8-methylpyrido[2,3-d]pyrimidin-7(8H)-one], in series [1], the IC50 was in the range of 0.14 to 3 µM. For the molecule `Cc1ccccc1-c1cc2cnc(NN3CC4CCCC4C3)nc2n(C)c1=O` (stereo not drawn) [Compound No. 2, 6-(2-Methylphenyl)-2-(3-azabicyclo[3.3.0]oct-3-yl-amino)-8-methylpyrido[2,3-d]pyrimidin-7(8H)-one], the melting point was in the range of 69.8 to 79.8 °C. `O=c1c(-c2ccccc2F)cc2cnc(NN3CC4CCCC4C3)nc2n1Cc1ccc(F)cc1` (stereo not drawn) [Compound No. 13, 6-(2-Fluorophenyl)-2-(3-azabicyclo[3.3.0]oct-3-yl-amino)-8-(4-fluorobenzyl)-pyrido[2,3-d]pyrimidin-7(8H)-one]: on activated p38, the “observation in the p38 enzyme assay” value is listed as “formed a precipitate”. Regarding `CCOC(=O)C(C)n1c(=O)c(-c2ccccc2F)cc2cnc(NN3CC4CCCC4C3)nc21` (stereo not drawn) [Compound No. 20, Ethyl 2-[6-(2-fluorophenyl)-2-(3-azabicyclo[3.3.0]oct-3-yl-amino)-7-oxopyrido[2,3-d]pyrimidin-8(7H)-yl]propanoate], the IC50 in series [1] is 0.14 to 3 µM. On the same count and under the same terms, the figure for `CCOC(=O)C(C)n1c(=O)c(-c2ccccc2C)cc2cnc(NN3CC4CCCC4C3)nc21` (stereo not drawn) [Compound No. 21, Ethyl 2-[6-(2-methylphenyl)-2-(3-azabicyclo [3.3.0]oct-3-yl-amino)-7-oxopyrido[2,3-d]pyrimidin-8(7H)-yl]propanoate] is 0.14 to 3 µM; for `O=c1c(-c2ccccc2F)cc2cnc(NN3CC4CCCC4C3)nc2n1C1CCCC1` (stereo not drawn) [Compound No. 22, 6-(2-Fluorophenyl)-2-(3-azabicyclo[3.3.0]oct-3-yl-amino)-8-(cyclopentyl)pyrido[2,3-d]pyrimidin-7(8H)-one] it is 0.14 to 3 µM. Regarding `O=c1c(-c2ccccc2F)cc2cnc(NN3CC4CCCC4C3)nc2n1CC1CC1` (stereo not drawn) [Compound No. 23, 6-(2-Fluorophenyl)-2-(3-azabicyclo[3.3.0]oct-3-yl-amino)-8-(cyclopropylmethyl)-pyrido[2,3-d]pyrimidin-7(8H)-one], the IC50 in series [1] lay within 0.14 to 3 µM. Still for that read-out and setting: the figure for `CCOCCn1c(=O)c(-c2ccccc2Cl)cc2cnc(NN3CC4CCCC4C3)nc21` (stereo not drawn) [Compound No. 25, 6-(2-Chlorophenyl)-2-(3-azabicyclo[3.3.0]oct-3-yl-amino)-8-(2-ethoxyethyl)pyrido[2,3-d]pyrimidin-7(8H)-one] is 0.14 to 3 µM; for `CCCCS(=O)(=O)NCCn1c(=O)c(-c2ccccc2C)cc2cnc(NN3CC4CCCC4C3)nc21` (stereo not drawn) [Compound No. 40, N-{2-[2-(3-azabicyclo[3.3.0]oct-3-yl-amino)-6-(2-methylphenyl)-7-oxopyrido[2,3-d]pyrimidin-8(7H)-yl]ethyl}butane-1-sulfonamide] it is 0.14 to 3 µM; for `CCOC(=O)Cn1c(=O)c(-c2ccccc2C)cc2cnc(NN3CC4CCCC4C3)nc21` (stereo not drawn) [Compound No. 44, Ethyl[2-(3-azabicyclo[3.3.0]oct-3-yl-amino)-6-(2-methylphenyl)-7-oxopyrido[2,3-d]pyrimidin-8(7H)-yl]acetate] it is 0.14 to 3 µM. On the same count and under the same terms, the figure for `Cc1ccccc1-c1cc2cnc(NN3CC4CCCC4C3)nc2n(CC(=O)NC2CCC2)c1=O` (stereo not drawn) [Compound No. 47, N-Cyclobutyl-2-[2-(3-azabicyclo[3.3.0]oct-3-yl-amino)-6-(2-methylphenyl)-7-oxopyrido[2,3-d]pyrimidin-8(7H)-yl]acetamide] is 0.14 to 3 µM; for `COCCn1c(=O)c(-c2ccccc2C)cc2cnc(NN3CC4CCCC4C3)nc21` (stereo not drawn) [Compound No. 50, 6-(2-Methylphenyl)-2-(3-azabicyclo[3.3.0]oct-3-yl-amino)-8-(2-methoxyethyl)-pyrido[2,3-d]pyrimidin-7(8H)-one] it is 0.14 to 3 µM; for `CCOCCn1c(=O)c(-c2ccccc2C)cc2cnc(NN3CC4CCCC4C3)nc21` (stereo not drawn) [Compound No. 51, 6-(2-Methylphenyl)-2-(3-azabicyclo[3.3.0]oct-3-yl-amino)-8-(2-ethoxyethyl)pyrido[2,3-d]pyrimidin-7(8H)-one] it is 0.14 to 3 µM.

On to `O=c1c(-c2ccccc2Cl)cc2cnc(NN3CC4CCCC4C3)nc2n1C1CC1` (stereo not drawn) [Compound No. 52, 6-(2-Chlorophenyl)-2-(3-azabicyclo[3.3.0]oct-3-yl-amino)-8-cyclopropyl-pyrido[2,3-d]pyrimidin-7(8H)-one], for which, in series [1], the IC50 is 0.14 to 3 µM. On the same count and under the same terms, the figure for `O=c1c(Oc2ccccc2F)cc2cnc(NN3CC4CCCC4C3)nc2n1C1CC1` (stereo not drawn) [Compound No. 59, 6-(2-Fluorophenoxy)-2-(3-azabicyclo[3.3.0]oct-3-yl-amino)-8-cyclopropyl-pyrido[2,3-d]pyrimidin-7(8H)-one] is 0.14 to 3 µM; for `Cn1c(=O)c(-c2c(Cl)cccc2Cl)cc2cnc(NN3CC4CCCC4C3)nc21` (stereo not drawn) [Compound No. 68, 6-(2,6-Dichlorophenyl)-2-(3-azabicyclo[3.3.0]oct-3-yl-amino)-8-methylpyrido[2,3-d]pyrimidin-7(8H)-one] it is 0.14 to 3 µM. Turning to `Cn1c(=O)c(-c2ccccc2[N+](=O)[O-])cc2cnc(NN3CC4CCCC4C3)nc21` (stereo not drawn) [Compound No. 69, 6-(2-Nitrophenyl)-2-(3-azabicyclo [3.3.0]oct-3-yl-amino)-8-methyl-pyrido[2,3-d]pyrimidin-7(8H)-one], in series [1], the half-inhibitory concentration (IC50) fell in the range of 0.14 to 3 µM.

Take `Cn1c(=O)c(-c2ccc(F)cc2Cl)cc2cnc(NN3CC4CCCC4C3)nc21` (stereo not drawn) [Compound No. 71, 6-(2-Chloro-4-fluorophenyl)-2-(3-azabicyclo [3.3.0]oct-3-yl-amino)-8-methylpyrido[2,3-d]pyrimidin-7(8H)-one]: the concentration for half-maximal inhibition (IC50) in series [1] fell in the range of 0.14 to 3 µM.
